Data from patent US20240417407A1, “FUROINDAZOLE DERIVATIVES AS GPR84 ANTAGONISTS” (Bayer Aktiengesellschaft, priority 2021, published 2024).

The compounds below were run against T1, human GPR84 receptor (Homo sapiens, UniProt Q9NQS5) (assay: cAMP HTRF assay for identification of cellular GPR84 antagonists). Conditions: CHO-K1 cells stably expressing human GPR84; Forskolin plus agonist 6-OAU; cAMP HTRF readout; average or median values.
T1 construct: frozen aliquots prepared by acCELLerate; host or cells: CHO-K1
T1 sequence (Q9NQS5 whole entry): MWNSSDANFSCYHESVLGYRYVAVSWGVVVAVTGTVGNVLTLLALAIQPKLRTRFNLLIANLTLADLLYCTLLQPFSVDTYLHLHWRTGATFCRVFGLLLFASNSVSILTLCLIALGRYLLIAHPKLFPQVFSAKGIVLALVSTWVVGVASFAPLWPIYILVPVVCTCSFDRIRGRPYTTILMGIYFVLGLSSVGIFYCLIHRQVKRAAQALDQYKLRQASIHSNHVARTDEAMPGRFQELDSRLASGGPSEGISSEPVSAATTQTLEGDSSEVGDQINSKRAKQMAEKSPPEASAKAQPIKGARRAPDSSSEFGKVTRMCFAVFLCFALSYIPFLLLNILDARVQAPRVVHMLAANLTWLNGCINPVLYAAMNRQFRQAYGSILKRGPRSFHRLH
Format: cell-based
Excerpt: cAMP HTRF® Assay for Identification of Cellular GPR84 Antagonists
By using a Homogenous Time-Resolved Fluorescence (HTRF®) based assay (#62AM5PEJ, Cisbio, Condolet, France) the inhibition of the Gi-coupled GPR84 receptor can be detected. CHO-K1 cells stably expressing human GPR84 receptor (purchased from DiscoveRx, now Eurofins) were used and treated with Forskolin (F6886, Sigma, Germany) to stimulate membrane adenylyl cyclases and thereby unspecific cAMP formation. Activation of the Gi-coupled GPR84 by a natural or small molecule agonist (e.g. 6-n-octyl aminouracile, inhouse) results in inhibition of cellular cAMP formation which can be released again by antagonists to this receptor. Detection and quantification of cellular cAMP levels in this HTRF assay is achieved by interaction between a fluorescent cAMP tracer (cAMP-d2) and an Eu-cryptate labelled anti-cAMP antibody. Following excitation at 337 nm this pairing allows for the generation of a fluorescence resonance energy transfer (FRET) between the partners and results in FRET induced emissions at 665 nm and 620 nm, the latter representing background signal by Eu-cryptate labelled anti-cAMP antibody. Maximal signal is obtained in the absence of any cellular cAMP (no competition for the binding of the tracer to the antibody). Given the combination of the Gi coupling properties of GPR84 and the competitive nature of the detection system agonist treatment should result in an increase in the HTRF signal due to lowered cAMP levels. Any signal decrease in the presence of Forskolin, agonist and compound is indicative of antagonist mediated abrogation of GPR84 signalling.
For the assay, frozen aliquots of CHO-K1 cells expressing hGPR84 (prepared by acCELLerate, Hamburg, Germany) were thawed and a cell suspension (1.67E+06 cells/mL) in assay media (Ham's F12 Nutrient Mix, Thermo Fisher Scientific, Waltham, USA; 5% fetal calf serum, Biomol, Hamburg, Germany) containing cAMP-d2 (dilution 1:20, supplied with the kit #62AM5PEJ, Cisbio, Condolet, France) was prepared. After recovery of cells for 20 minutes at 37° C., 3 μL/well cell suspension including cAMP-d2 were added to a pre-dispensed assay plate (Greiner Bio-One, Kremsmuenster, Austria) containing 50 nl/well test compound in 100% DMSO or 100% DMSO as control. This was followed by a 30 minutes incubation step at room temperature. […] The reaction was stopped by addition of 3 μL/well lysis buffer containing cAMP Eu-Cryptate antibody (dilution 1:20) (both supplied with the kit #62AM5PEJ, Cisbio, Condolet, France). To enable complete lysis, plates were incubated for 60 minutes at room temperature before measurement in an HTRF reader, e.g. a PHERAstar (BMG Labtech, Ortenberg, Germany).
From the fluorescence emissions at 665 nm (FRET) and at 620 nm (background signal of Eu-cryptate) the ratio (emission at 665 nm divided by emission at 620 nm×10000) was calculated and the data were normalized (reaction without test compound, only 100% DMSO=0% inhibition; all other assay components except agonist=100% inhibition). For dose response testing on the same microtiter plate, compounds were tested at 11 different concentrations in the range of 20 μM to 0.07 nM (20 μM, 5.7 μM, 1.6 μM, 0.47 μM, 0.13 μM, 38 nM, 11 nM, 3.1 nM, 0.89 nM, 0.25 and 0.07 nM; dilution series prepared before the assay at the level of the 100-fold conc. stock solutions by serial 1:3.5 dilutions in 100% DMSO) in duplicate values for each concentration. IC50 values were calculated by 4-parameter fitting using a commercial software package (Genedata Screener, Basel, Switzerland).
Examples were tested in selected biological assays one or more times. […]
`N#Cc1ccnc(CNC(=O)c2oc3ccc4cn(C[C@H]5COCCO5)nc4c3c2C(F)(F)F)c1` [Example 23] was tested, and the IC50 was 250 nM. For `COc1cccc(CNC(=O)c2oc3ccc4cn(C[C@H]5COCCO5)nc4c3c2C(F)(F)F)n1` [Example 24], the IC50 was 400 nM. Compound `O=C(NCCn1ccnc1)c1oc2ccc3cn(C[C@H]4COCCO4)nc3c2c1C(F)(F)F` [Example 25] has an IC50 of 13000 nM. With `Cc1cn(CCNC(=O)c2oc3ccc4cn(C[C@H]5COCCO5)nc4c3c2C(F)(F)F)nn1` [Example 26] the IC50 was 14000 nM. `O=C(NCCc1ccccn1)c1oc2ccc3cn(C[C@H]4COCCO4)nc3c2c1C(F)(F)F` [Example 27, 2-{[(2S)-1,4-dioxan-2-yl]methyl}-N-[2-(pyridin-2-yl)ethyl]-8-(trifluoromethyl)-2H-furo[2,3-g]indazole-7-carboxamide] was tested, and the IC50 was 630 nM. With `O=C(NCCc1cccnc1)c1oc2ccc3cn(C[C@H]4COCCO4)nc3c2c1C(F)(F)F` [Example 28, 2-{[(2S)-1,4-dioxan-2-yl]methyl}-N-[2-(pyridin-3-yl)ethyl]-8-(trifluoromethyl)-2H-furo[2,3-g]indazole-7-carboxamide] the IC50 was 3580 nM. With `Cc1cc2oc(C(=O)NC[C@@H]3CCCO3)c(C(F)(F)F)c2c2nn(Cc3ccccn3)cc12` [Example 29] the IC50 was 16 nM. Compound `Cc1cc2oc(C(=O)NC[C@@H]3COCCO3)c(C(F)(F)F)c2c2nn(Cc3ccccn3)cc12` [Example 30] has an IC50 of 26 nM. `Cc1cc2oc(C(=O)NC[C@@H]3CCCO3)c(C(F)(F)F)c2c2nn(Cc3ccncc3)cc12` [Example 31] showed an IC50 of 13 nM. Compound `Cc1cc2oc(C(=O)NCc3ncco3)c(C(F)(F)F)c2c2nn(Cc3ccccn3)cc12` [Example 33] has an IC50 of 100 nM. In the case of `Cc1cc2oc(C(=O)NCc3ccn(C)n3)c(C(F)(F)F)c2c2nn(Cc3ccccn3)cc12` [Example 34], the IC50 is reported as 150 nM. Work on `Cc1ccc(Cn2cc3c(C)cc4oc(C(=O)NC[C@@H]5CCCO5)c(C(F)(F)F)c4c3n2)nc1` [Example 35] yielded an IC50 of 4 nM. Compound `Cc1ccc(Cn2cc3c(C)cc4oc(C(=O)NC[C@@H]5COCCO5)c(C(F)(F)F)c4c3n2)nc1` [Example 36, N-{[(2R)-1,4-dioxan-2-yl]methyl}-4-methyl-2-[(5-methylpyridin-2-yl)methyl]-8-(trifluoromethyl)-2H-furo[2,3-g]indazole-7-carboxamide] has an IC50 of 5 nM. `Cc1ccc(Cn2cc3c(C)cc4oc(C(=O)NCc5ncco5)c(C(F)(F)F)c4c3n2)nc1` [Example 37, 4-methyl-2-[(5-methylpyridin-2-yl)methyl]-N-[(1,3-oxazol-2-yl)methyl]-8-(trifluoromethyl)-2H-furo[2,3-g]indazole-7-carboxamide] was tested, and the IC50 was 18 nM. `Cc1cc2oc(C(=O)NC[C@@H]3CCCO3)c(C(F)(F)F)c2c2nn(C[C@H]3COCCO3)cc12` [Example 38] showed an IC50 of 21 nM. In the case of `Cc1cc2oc(C(=O)NC[C@@H]3COCCO3)c(C(F)(F)F)c2c2nn(C[C@H]3COCCO3)cc12` [Example 39, N-{[(2R)-1,4-dioxan-2-yl]methyl}-2-{[(2S)-1,4-dioxan-2-yl]methyl}-4-methyl-8-(trifluoromethyl)-2H-furo[2,3-g]indazole-7-carboxamide], the IC50 is reported as 32 nM. With `Cc1c(C(=O)NC[C@@H]2CCCO2)oc2ccc3cn(Cc4ccccn4)nc3c12` [Example 40, 8-methyl-2-(pyridin-2-ylmethyl)-N-[(2S)-tetrahydrofuran-2-ylmethyl]-2H-furo[2,3-g]indazole-7-carboxamide] the IC50 was 16 nM. With `O=C(NC[C@@H]1CCCO1)c1oc2ccc3cn(Cc4ccccn4)nc3c2c1CO` [Example 41, 8-(hydroxymethyl)-2-(pyridin-2-ylmethyl)-N-[(2S)-tetrahydrofuran-2-ylmethyl]-2H-furo[2,3-g]indazole-7-carboxamide] the IC50 was 530 nM. `O=C(NC[C@@H]1CCCO1)c1cc2c(ccc3cn(Cc4ccccn4)nc32)o1` [Example 42, 2-(pyridin-2-ylmethyl)-N-[(2S)-tetrahydrofuran-2-ylmethyl]-2H-furo[2,3-g]indazole-7-carboxamide] showed an IC50 of 880 nM. With `O=C(NC[C@@H]1CCCO1)c1cc2c(cc(Br)c3cn(Cc4ccccn4)nc32)o1` [Example 43, 4-bromo-2-(pyridin-2-ylmethyl)-N-[(2S)-tetrahydrofuran-2-ylmethyl]-2H-furo[2,3-g]indazole-7-carboxamide] the IC50 was 4930 nM. `CCc1cc2oc(C(=O)NC[C@@H]3COCCO3)c(C)c2c2nn(C[C@H]3COCCO3)cc12` [Example 44, N-{[(2R)-1,4-dioxan-2-yl]methyl}-2-{[(2S)-1,4-dioxan-2-yl]methyl}-4-ethyl-8-methyl-2H-furo[2,3-g]indazole-7-carboxamide] showed an IC50 of 54 nM.
